pIC50, pKi: −log10 of the molar value. Structures can show the parent of a compound that is named as a salt.
Key:
human H4 receptor [1] = target: T1, human H4 receptor (Homo sapiens, UniProt Q9H3N8); experiment: GTPγ[35S] binding assay on membranes of SH-SY5Y cells stably expressing human H4 receptor; assay type: biochemical
T1 construct: expressed in transfected cells
Protocol: SH-SY5Y cells stably expressing human H4 receptor are grown until sub-confluence and centrifuged at 300 g 15 minutes at 4° C. Pellets are resuspended in buffer I Tris-HCl 50 mM, MgCl2 10 mM, NaCl 140 mM, pH=7.4 supplemented by Leupeptin 10 μg/mL, Phenyl Methyl Sulphonyl Fluoride (PMSF) 0.1 mM, Aprotinin 2 μg/mL and Pepstatin 2 μM (or a 1/50 dilution of a mix of protease inhibitors). The obtained suspension is stirred gently and submitted to a […] exerted through a syringe. The cell lysate is then centrifuged at 300 g 15 minutes at 4° C. in order to eliminate nucleus and cell scraps. The obtained supernatant is then centrifuged at 48000 g for 30 minutes at 4° C. The final pellet is resuspended in buffer I with a potter homogenizer. Aliquots are frozen in liquid nitrogen and stored until use at −80° C. Protein content is measured by the Bradford method.
Defreezed membranes are diluted at a final concentration of 5 μg/180 μL/well in buffer I supplemented by GDP 10 μM and distributed in 96 well polystyrene microplate. GTPγ [^35S] labelled ligand (0.2-0.3 nM) is added for additional 30 minutes. After transfer in a Millipore GF/C HTS® microplate, the filtration of the rectional mix is followed by a three times 250 μl wash to stop the reaction.
The filter-bound radioactivity is measured in a liquid scintillation counter Microbeta TRILUX® with 50 μl of scintillation fluid.
Results are expressed with IC50 and Ki values.

human H4 receptor [2] = target: T1, human H4 receptor; experiment: [3H]Histamine binding assay on membranes of CHO cells stably expressing human H4 receptor
Protocol: CHO cells stably expressing human H4 receptor were grown until sub-confluence and centrifuged at 300 g 15 minutes at 4° C. Pellets were resuspended in buffer I Tris-HCl 50 mM, MgCl2 10 mM, NaCl 140 mM, pH=7.4 supplemented by a 1/50 dilution of a mix of protease inhibitors. The obtained suspension is stirred gently and submitted to a […] exerted through a syringe. The cell lysate is then centrifuged at 300 g 15 minutes at 4° C. in order to eliminate nucleus and cell scraps. The obtained supernatant was then centrifuged at 48000 g for 30 minutes at 4° C. The final pellet is resuspended in buffer I with a potter homogenizer. Aliquots were frozen in liquid nitrogen and stored until use at −80° C. Protein content is measured by the Bradford method.
Defreezed membranes were diluted at a final concentration of 20 μg/180 μL/well in a binding buffer containing 50 mM Tris/HCl, 0.5 mM EDTA, pH=7.4 and distributed in 96 well polystyrene microplate. [^3H] […] Non specific binding was estimated in the presence of 10 μM BP1.2404 (JNJ 7777120). The reaction was terminated by filtration through GF/B filters pre-soaked 2 hours at 4° C. in 1% polyethyleneimine. Filters were rinsed 3 times with 250 μl of ice cold incubation binding buffer.
The filter-bound radioactivity was measured in a liquid scintillation counter Microbeta TRILUX® with 50 μl of scintillation fluid.
The hH4 binding investigated by use of [^3H]

T1 sequence (Q9H3N8 whole entry): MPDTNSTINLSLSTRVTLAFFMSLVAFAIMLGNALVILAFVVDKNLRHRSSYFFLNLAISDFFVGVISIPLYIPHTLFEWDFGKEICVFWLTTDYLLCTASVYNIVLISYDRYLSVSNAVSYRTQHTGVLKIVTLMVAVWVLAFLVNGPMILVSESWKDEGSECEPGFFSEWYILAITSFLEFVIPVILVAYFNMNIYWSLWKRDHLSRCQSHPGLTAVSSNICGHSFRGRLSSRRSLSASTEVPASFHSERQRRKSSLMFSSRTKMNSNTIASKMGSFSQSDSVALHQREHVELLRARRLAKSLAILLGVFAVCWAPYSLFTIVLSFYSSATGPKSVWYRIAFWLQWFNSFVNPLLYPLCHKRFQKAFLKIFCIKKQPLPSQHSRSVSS

| Compound | pIC50 (human H4 receptor [1]) | melting point [°C] | pKi (human H4 receptor [2]) |
| --- | --- | --- | --- |
| Cc1ccnc(C(OC2CCN(C)CC2)c2ccc(C)cc2F)c1.O=C(O)C(=O)O.O=C(O)C(=O)O (stereo not shown) [Example 7, 2-[(2-Fluoro-4-methylphenyl)(1-methylpiperidin-4-yloxy)methyl]-4-methylpyridine, dioxalate] | > 6.52 | 52 | > 6.52 |
| CN1CCC(OC(c2cccc(C#CCCCCN)c2)c2ccc(Cl)cn2)CC1.O=C(O)C(=O)O (stereo not shown) [Example 18, 6-{3-[(5-Chloropyridin-2-yl)(1-methylpiperidin-4-yloxy)methyl]phenyl}hex-5-ynylamine, oxalate] | > 6.52 | 136 | > 7.52 |
| Cc1ccc(C(OC2CCN(C)CC2)c2ccc3ccccc3c2)c(F)c1.O=C(O)C(=O)O (stereo not shown) [Example 29, 4-[(2-Fluoro-4-methylphenyl)naphthalen-2-yl-methoxy]-1-methylpiperidine, oxalate] | > 6.00 | 122 | – |
| Cc1ccc(C(OC2CCN(C)CC2)c2ccc(Cl)cn2)c(F)c1.O=C(O)C(=O)O (stereo not shown) [Example 2, 5-Chloro-2-[(2-fluoro-4-methylphenyl)(1-methylpiperidin-4-yloxy)methyl]pyridine, oxalate] | > 6.52 | 165 | > 7.52 |
| CN1CCC(OC(c2cccc(C#CCCCCN)c2)c2ccccn2)CC1 (stereo not shown) [Example 5, 6-{3-[(1-Methylpiperidin-4-yloxy)pyridin-2-ylmethyl]phenyl}hex-5-ynylamine, oxalate] | > 6.52 | – | > 6.52 |
| CCOC(=O)NCCCCC#Cc1cccc(C(OC2CCN(C)CC2)c2ccccn2)c1.O=C(O)C(=O)O (stereo not shown) [Example 17, (6-{3-[(1-Methylpiperidin-4-yloxy)pyridin-2-ylmethyl]phenyl}hex-5-ynyl)carbamic acid ethyl ester, oxalate] | – | 77 | > 6.00 |
| CN1CCC(OC(c2ccccc2F)c2cc(OC(F)(F)F)ccc2F)CC1.O=C(O)C(=O)O (stereo not shown) [Example 32, 4-[(2-Fluorophenyl)-(2-fluoro-5-trifluoromethoxyphenyl)methoxy]-1-methylpiperidine, oxalate] | > 6.00 | 116 | > 6.00 |
| Cc1ccc(C(OC2CCN(C)CC2)c2ccc(Cl)c(Cl)c2)c(F)c1.O=C(O)C(=O)O (stereo not shown) [Example 30, 4-[(3,4-Dichlorophenyl)(2-fluoro-4-methylphenyl)methoxy]-1-methylpiperidine, oxalate] | > 6.52 | 140 | > 6.52 |
| CN1CCC(OC(c2ccc(Cl)cc2)c2ccc(Cl)cn2)CC1.O=C(O)C(=O)O (stereo not shown) [Example 9, 5-Chloro-2-[(4-chlorophenyl)(1-methylpiperidin-4-yloxy)methyl]pyridine, oxalate] | – | 190 | > 6.52 |
| CN1CCC(OC(c2ccc(Cl)cn2)c2cc(OC(F)(F)F)ccc2F)CC1.O=C(O)C(=O)O (stereo not shown) [Example 4, 5-Chloro-2-[(2-fluoro-5-trifluoromethoxyphenyl)(1-methylpiperidin-4-yloxy)methyl]pyridine, oxalate] | > 6.52 | 75 | > 6.52 |
| CN1CCC(OC(c2ccccn2)c2cc(OC(F)(F)F)ccc2F)CC1.O=C(O)C(=O)O.O=C(O)C(=O)O (stereo not shown) [Example 1, 2-[(2-Fluoro-5-trifluoromethoxyphenyl)(1-methylpiperidin-4-yloxy)methyl]pyridine, dioxalate] | > 6.52 | 45 | > 6.52 |
| Cc1ccc(C(OC2CCN(C)CC2)c2ccc(F)cn2)c(F)c1.O=C(O)C(=O)O (stereo not shown) [Example 10, 5-Fluoro-2-[(2-fluoro-4-methylphenyl)(1-methylpiperidin-4-yloxy)methyl]pyridine, oxalate] | > 6.52 | 133 | > 6.52 |
| COc1cccc(C(OC2CCN(C)CC2)c2ccc(Cl)cn2)c1.O=C(O)C(=O)O (stereo not shown) [Example 12, 5-Chloro-2-[(3-methoxyphenyl)(1-methylpiperidin-4-yloxy)methyl]pyridine, oxalate] | – | 175 | > 6.00 |
| CN1CCC(OC(c2ccc(Cl)cc2)c2cccc(C#CCCCCN)c2)CC1 (stereo not shown) [Example 36, 6-{3-[(4-Chlorophenyl)(1-methylpiperidin-4-yloxy)methyl]phenyl}hex-5-ynylamine, dioxalate] | > 7.52 | – | > 7.52 |
| CN1CCC(OC(c2ccc(F)cn2)c2cc(OC(F)(F)F)ccc2F)CC1.O=C(O)C(=O)O (stereo not shown) [Example 11, 5-Fluoro-2-[(2-fluoro-5-trifluoromethoxyphenyl)(1-methylpiperidin-4-yloxy)methyl]pyridine, oxalate] | – | 113 | > 6.00 |
| CN1CCC(OC(c2ccc(Cl)cn2)c2ccc(F)cc2O)CC1 (stereo not shown) [Example 23, 2-[(5-Chloropyridin-2-yl)(1-methylpiperidin-4-yloxy)methyl]-5-fluorophenol] | – | 57 | > 7.52 |
| CN1CCC(OC(c2ccc(Cl)cc2)c2cc(OC(F)(F)F)ccc2F)CC1.O=C(O)C(=O)O (stereo not shown) [Example 33, 4-[(4-Chlorophenyl)(2-fluoro-5-trifluoromethoxyphenyl)methoxy]-1-methylpiperidine, oxalate] | > 6.52 | 117 | > 6.52 |
| Cc1ccc(C(OC2CCN(C)CC2)c2cc(C(F)(F)F)ccn2)c(F)c1.O=C(O)C(=O)O (stereo not shown) [Example 14, 2-[(2-Fluoro-4-methylphenyl)(1-methylpiperidin-4-yloxy)methyl]-4-trifluoromethylpyridine, oxalate] | – | 104 | > 6.52 |
| CN1CCC(OC(c2ccc(Cl)c(Cl)c2)c2cc(OC(F)(F)F)ccc2F)CC1.O=C(O)C(=O)O (stereo not shown) [Example 31, 4-[(3,4-Dichlorophenyl)(2-fluoro-5-trifluoromethoxyphenyl)methoxy]-1-methylpiperidine, oxalate] | > 6.52 | 115 | > 6.52 |
| CN1CCC(OC(c2ccc3ccccc3c2)c2cc(OC(F)(F)F)ccc2F)CC1.O=C(O)C(=O)O (stereo not shown) [Example 28, 4-[(2-Fluoro-5-trifluoromethoxyphenyl)naphthalen-2-ylmethoxy]-1-methylpiperidine, oxalate] | > 6.52 | 105 | > 6.00 |
| Cc1ccc(C(OC2CCN(C)CC2)c2ccc(Cl)cc2)c(F)c1.O=C(O)C(=O)O (stereo not shown) [Example 34, 4-[(4-Chlorophenyl)(2-fluoro-4-methylphenyl)methoxy]-1-methylpiperidine, oxalate] | – | 165 | > 6.52 |
| CN1CCC(OC(c2ccncc2)c2cc(OC(F)(F)F)ccc2F)CC1.O=C(O)C(=O)O.O=C(O)C(=O)O (stereo not shown) [Example 6, 4-[(2-Fluoro-5-trifluoromethoxyphenyl)(1-methylpiperidin-4-yloxy)methyl]pyridine, dioxalate] | – | 61 | > 6.52 |
| CN1CCC(OC(c2ccc(Cl)cc2)c2cccc(I)c2)CC1.O=C(O)C(=O)O (stereo not shown) [Example 35, 4-[(4-Chlorophenyl)(3-iodophenyl)methoxy]-1-methylpiperidine, oxalate] | > 6.52 | 141 | > 7.52 |
